According to ChEMBL document CHEMBL3832761, “MMV Pathogen Box Bioactivity Data” (2017):
pIC50: −log10 of the molar value.

What was measured:
Leishmania donovani [1] = assay: AntiLeishmania activity L. donovani (axenic) IC50 (uM); assay type: functional, organism-based
Trypanosoma brucei [2] = assay: AntiTrypanosoma brucei activity T. b. brucei IC50 (uM); assay type: functional, organism-based
Leishmania donovani [3] = assay: AntiLeishmania activity L. donovani (macrophages) IC50 (uM); assay type: functional, organism-based
Trypanosoma cruzi = assay: AntiTrypanosoma cruzi activity IC50 (uM); assay type: functional, organism-based
Trypanosoma brucei [4] = assay: AntiTrypanosoma brucei activity T. b. rhodesiense IC50 (uM); assay type: functional, organism-based
[5] = PMM CC50 (uM) Cytotoxicity; assay type: functional; details: Macrophage
Leishmania infantum = assay: AntiLeishmania activity L. infantum (macrophages) IC50 (uM); assay type: functional, organism-based
MRC5 = assay: MRC5 CC50 (uM) Cytotoxicity; assay type: functional; details: Homo sapiens
HepG2 [6] = assay: Cytotoxicity data HepG2 CC20 (uM); assay type: functional
L6 = assay: L6 CC50 (uM) Cytotoxicity; assay type: functional; details: Rattus norvegicus
Leishmania = assay: AntiLeishmania activity Toxicity on infected PMM (uM); assay type: functional
Plasmodium falciparum [7] = assay: Antimalarial activity: Asexual Blood Stage Plasmodium falciparum Dd2 IC50 (uM); assay type: functional, organism-based
Plasmodium falciparum [8] = assay: Antimalarial activity: Asexual Blood Stage Plasmodium falciparum W2 IC50 (uM); assay type: functional, organism-based
Plasmodium falciparum [9] = assay: Antimalarial activity: Asexual Blood Stage Plasmodium falciparum 3D7 IC50 (uM); assay type: functional, organism-based
Plasmodium falciparum [10] = assay: Antimalarial activity: Gametocytes Plasmodium falciparum NF54 Gametocytes Stage V: inhibition at 10 uM (%); assay type: functional
Plasmodium falciparum [11] = assay: Antimalarial activity: Gametocytes Plasmodium falciparum NF54 Gametocytes Stage V IC50 (uM); assay type: functional, organism-based
Plasmodium berghei [12] = assay: Antimalarial activity: Liver Stage Plasmodium berghei sporozoite Luciferase assay IC50 (uM); assay type: functional, organism-based
HepG2 [13] = assay: HepG2 CC50 (uM) Cytotoxicity; assay type: functional; details: Homo sapiens
Plasmodium berghei [14] = assay: Antimalarial activity: Liver Stage Plasmodium berghei sporozoite Luciferase assay: inhibition at 10 uM (%); assay type: functional
Toxoplasma gondii [15] = assay: AntiToxoplasma gondii activity data 2-day killing assay: inhibition at 10 uM (%) Experiment E; assay type: functional
Toxoplasma gondii [16] = assay: AntiToxoplasma gondii activity data 2-day killing assay: IC50 (uM), Experiment F; assay type: functional, organism-based; details: Toxoplasma gondii, 48 h; read-out: IC50
Toxoplasma gondii [17] = assay: AntiToxoplasma gondii activity data 2-day killing assay: inhibition at 10 uM (%) Experiment D; assay type: functional
Toxoplasma gondii [18] = assay: AntiToxoplasma gondii activity data 2-day killing assay: inhibition at 10 uM (%) Experiment C; assay type: functional; details: 48 h
[19] = HL60 CC50 (uM) Cytotoxicity; assay type: functional; details: HL-60
Toxoplasma gondii [20] = assay: AntiToxoplasma gondii activity data Inhibition of plaque forming efficiency (%) Experiment A; assay type: functional; design: concentration or dose not given beside the values

SMILES | pIC50 (Leishmania donovani [1]) | pIC50 (Trypanosoma brucei [2]) | pIC50 (Leishmania donovani [3]) | pIC50 (Trypanosoma cruzi) | pIC50 (Trypanosoma brucei [4]) | pIC50 (Leishmania infantum) | pIC50 (Plasmodium falciparum [7]) | pIC50 (Plasmodium falciparum [8]) | pIC50 (Plasmodium falciparum [9]) | pIC50 (Plasmodium falciparum [11]) | pIC50 (Plasmodium berghei [12]) | CC50 [5] | CC50 (MRC5) | CC20 (HepG2 [6]) | CC50 (L6) | Toxicity on infected macrophages (Leishmania) | Inhibition (Plasmodium falciparum [10]) | CC50 (HepG2 [13]) | Inhibition (Plasmodium berghei [14]) | further results
Cc1nc(-c2ccccn2)nc(NCCc2ccc(S(C)(=O)=O)cc2)c1Cl | 5.69 | < 4.49 | < 4.52 | 5.35 | < 4.49 | < 4.49 |  |  |  |  |  | > 32 µM | > 32 µM | 27.9 µM | 13 µM | 30 µM |  |  |  | 
O=C(OCc1ccccc1)N1CCC(c2cc(-c3ccncc3)c(-c3ccc(F)cc3)[nH]2)CC1 |  |  |  |  |  |  |  |  |  |  |  |  |  |  |  |  |  |  |  | Inhibition (Toxoplasma gondii [15]): 99.1%; pIC50 (Toxoplasma gondii [16]): 6.06; Inhibition (Toxoplasma gondii [17]): 76.8%; inhibition at 10 µM (Toxoplasma gondii [18]): 77%; CC50 [19]: > 50 µM; Inhibition (Toxoplasma gondii [20]): ~75%
Cc1ccc2c(c1C)NC(=O)C21NN=C(c2ccccc2)S1 (configuration not stated) |  |  |  |  |  |  | 5.67 | 6.05 | 5.95 | 6.05 | 6.06 |  |  | >80 µM |  |  | 78% | > 7.5 µM | 100% | 
COc1cc(-c2cc(-c3ccc(S(C)(=O)=O)cc3)cnc2N)ccc1O |  |  |  |  |  |  | 6.85 | 7.00 | 7.00 | 7.15 | 5.60 |  |  | 1.55 µM |  |  | 94% | > 10 µM | 100% | 
Clc1ccc(Cl)c(CO[C@H]2CCCC[C@@H]2n2ccnc2)c1 | 4.81 | < 4.49 | 4.89 | 5.87 | 4.64 | 4.79 |  |  |  |  |  | 16 µM | > 32 µM | 37.1 µM | 30.7 µM | 30 µM |  |  |  | 
COc1ccc(-c2cnc3ccc(NCc4ccc(S(N)(=O)=O)cc4)nn23)cn1 |  |  |  |  |  |  | 6.09 | 6.15 | 6.31 | 5.99 | 5.17 |  |  | 3.29 µM |  |  | 82% | > 10 µM | 100% | 
O=C(Nc1ccccc1-c1nc2c(C(=O)O)cccc2o1)c1ccccc1 | 6.40 | < 4.49 | < 4.52 | < 4.49 | < 4.49 | < 4.49 |  |  |  |  |  | > 32 µM | > 32 µM | >80 µM | 45.4 µM | >30 µM |  |  |  | 
N#Cc1ccc(-c2cnc(N)c(-c3ccc(C(N)=O)cc3)n2)cc1 |  |  |  |  |  |  | 6.96 | 6.68 | 7.05 | 6.85 | 6.55 |  |  | 12 µM |  |  | 87% | > 10 µM | 100% | 
COc1ccc(-c2cnc3ccc(N4CCCC4)nn23)cc1OC |  |  |  |  |  |  | 6.17 | 6.07 | 6.15 | 6.39 | 6.20 |  |  | 4.95 µM |  |  | 91% | > 10 µM | 100% | 
CN1CCC(c2cc(-c3ccncc3)c(-c3ccc(F)cc3)[nH]2)CC1 |  |  |  |  |  |  |  |  |  |  |  |  |  |  |  |  |  |  |  | Inhibition (Toxoplasma gondii [15]): 97.9%; pIC50 (Toxoplasma gondii [16]): 5.92; Inhibition (Toxoplasma gondii [17]): 100%; inhibition at 10 µM (Toxoplasma gondii [18]): 99.3%; CC50 [19]: > 50 µM; Inhibition (Toxoplasma gondii [20]): 100%
CC(C)(C)n1nc(-c2ccccc2)c2c(N)ncnc21 |  |  |  |  |  |  |  |  |  |  |  |  |  |  |  |  |  |  |  | Inhibition (Toxoplasma gondii [15]): 97.5%; pIC50 (Toxoplasma gondii [16]): 5.96; Inhibition (Toxoplasma gondii [17]): 100%; inhibition at 10 µM (Toxoplasma gondii [18]): 96.5%; CC50 [19]: > 25 µM; Inhibition (Toxoplasma gondii [20]): 100%
COc1ccc(C(=N)N)cc1-c1cn(-c2ccc(C(=N)N)cc2)nn1 | 4.84 | 6.60 | < 4.52 | 4.67 | > 6.89 | < 4.49 |  |  |  |  |  | > 32 µM | > 32 µM | 5.47 µM | 26.7 µM | 30 µM |  |  |  | 
CCn1ncc2c(NC3CCOCC3)c(CNC(=O)c3ccnn3C)c(C)nc21 |  |  |  |  |  |  | 6.41 | 6.22 | 6.55 | 6.62 | 5.80 |  |  | 24.5 µM |  |  | 89% | > 10 µM | 100% | 
CN(C(=O)c1cc2c(-c3cncnc3)cccc2[nH]1)c1ccccc1 |  |  |  |  |  |  | 6.17 | 6.10 | 6.14 | 6.24 | 5.99 |  |  | 6.04 µM |  |  | 81% | > 10 µM | 100% | 
NS(=O)(=O)c1cccc(-c2ccc3ncc(N4CCOCC4)nc3c2)c1 |  |  |  |  |  |  | 5.78 | 5.73 | 5.82 | 5.88 | 5.74 |  |  | 7.61 µM |  |  | 92% | > 10 µM | 100% | 
CCN(CC)S(=O)(=O)c1ccc(Cl)c(C(=O)Nc2ccc3nc(C)sc3c2)c1 |  |  |  |  |  |  | 6.26 | 6.23 | 6.30 | 5.41 | 5.88 |  |  | 10 µM |  |  | 86% | > 10 µM | 100% | 
FC(F)(F)c1cc(NCCc2ccccc2)nc(-c2ccccn2)n1 | 6.60 | < 4.49 | 5.29 | 5.37 | 4.57 | 4.79 |  |  |  |  |  | 16 µM | > 32 µM | >80 µM | 5.3 µM | 30 µM |  |  |  | 
CN(C)c1cc(NC(=O)Nc2ccccc2)c2ccccc2n1 |  |  |  |  |  |  | 5.96 | 5.91 | 6.22 | 5.50 | < 5.00 |  |  | 6.86 µM |  |  | 88% | > 10 µM | 98% | 

The next lines start with results.

pIC50 (Leishmania donovani [1]) | pIC50 (Trypanosoma brucei [2]) | pIC50 (Leishmania donovani [3]) | pIC50 (Trypanosoma cruzi) | pIC50 (Trypanosoma brucei [4]) | pIC50 (Leishmania infantum) | pIC50 (Plasmodium falciparum [7]) | pIC50 (Plasmodium falciparum [8]) | pIC50 (Plasmodium falciparum [9]) | pIC50 (Plasmodium falciparum [11]) | pIC50 (Plasmodium berghei [12]) | SMILES | CC50 [5] | CC50 (MRC5) | CC20 (HepG2 [6]) | CC50 (L6) | Toxicity on infected macrophages (Leishmania) | Inhibition (Plasmodium falciparum [10]) | CC50 (HepG2 [13]) | Inhibition (Plasmodium berghei [14]) | further results
 |  |  |  |  |  | 5.92 | 5.85 | 6.11 | 6.21 | < 5.00 | O=C(Nc1ccc(N2CCNCC2)cc1)c1ccn2ncc(-c3cccc(Cl)c3)c2n1 |  |  | 0.76 µM |  |  | 97% | > 10 µM | 96% | 
5.40 | < 4.49 | < 4.52 | < 4.49 | < 4.49 | < 4.49 |  |  |  |  |  | COC(=O)c1cccc2oc(-c3cccc(OC)c3NC(=O)c3cc(-c4ccccc4)on3)nc12 | > 32 µM | > 32 µM | >80 µM | 50 µM | >30 µM |  |  |  | 
 |  |  |  |  |  | 5.91 | 5.81 | 6.24 | 5.64 | 5.13 | O=C(Nc1ccccc1)c1ccc(-c2cc3ccncc3cc2OC2CCNCC2)s1 |  |  | 3.65 µM |  |  | 96% | > 7.5 µM | 100% | 
< 4.00 | 4.60 | 4.65 | 5.34 | 4.79 | 4.60 |  |  |  |  |  | N#CCN(CCCCN1CCN(c2ccc(F)cc2)CC1)C(=O)OCc1ccccc1 | > 32 µM | > 32 µM |  | 15.3 µM | >30 µM |  |  |  | Toxicity (Leishmania): >30 µM
5.18 | < 4.49 | < 4.52 | 5.51 | < 4.49 | < 4.49 |  |  |  |  |  | Clc1cccc(CO[C@H]2CCc3ccccc3[C@@H]2n2ccnn2)c1 | > 32 µM | > 32 µM | >80 µM | 64 µM | >30 µM |  |  |  | 
5.41 | 5.46 | < 4.52 | 4.80 | 5.89 | 4.67 |  |  |  |  |  | c1ccc(Oc2ccc(-c3cc(N4CCOCC4)[nH]n3)cc2)cc1 | > 32 µM | > 32 µM | 7.47 µM | 10 µM | >30 µM |  |  |  | 
7.70 | 4.83 | 5.59 | 6.06 | 4.93 | 5.39 |  |  |  |  |  | Cc1nc(-c2ccccn2)nc(N(C)CCc2ccccc2)c1Cl | 4 µM | 21.7 µM | 11.3 µM | 9.6 µM | 16.7 µM |  |  |  | 
 |  |  |  |  |  | 5.69 | 5.67 | 6.09 | 5.85 | 5.34 | CN1CCC(NCc2cccc(-c3ccc(S(=O)(=O)NCc4ccccc4)cc3)c2)CC1 |  |  | 4.15 µM |  |  | 95% | > 10 µM | 99% | 
5.01 | 4.82 | 4.58 | 4.80 | 5.28 | < 4.49 |  |  |  |  |  | c1ccc(Oc2ccc(-c3cc(CN4CCOCC4)[nH]n3)cc2)cc1 | > 32 µM | > 32 µM | 28.9 µM | 22.9 µM | 30 µM |  |  |  | 
6.24 | < 4.49 | < 4.52 | < 4.49 | < 4.49 | < 4.49 |  |  |  |  |  | O=C(Nc1c(O)cccc1-c1nc2c(C(=O)O)cccc2o1)c1cc(-c2ccccc2)on1 | > 32 µM | > 32 µM | 5.73 µM | 21.9 µM | >30 µM |  |  |  | 
